Source: PubChem BioAssay AID977614 (Broad Institute, 2014)
Calls of active or inactive are those of the source.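 How the source made its calls: active means parasite count per well reduced by over 3 SD from the mean, with host cell number above 80% of untreated; inactive means the rest.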

Tested on: L. donovani amastigotes in THP-1 macrophages, DAPI imaging, 72 h
Experiment: L. donovani intracellular amastigote growth inhibitors, imaging, THP-1 host macrophages, single concentration (AID 977614);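 further: signal is the parasite per host cell ratio from DAPI stained kinetoplasts and nuclei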

| Structure (SMILES) | AC50 |
| --- | --- |
| Cc1noc(C)c1NC(=O)N(C)C[C@@H]1OCc2cnnn2CCCC(=O)N([C@@H](C)CO)C[C@H]1C | > 10 µM (inactive) |
| C/C=C/c1ccc([C@@H]2[C@@H](CNC(=O)CC3CC3)N(C(=O)CC)[C@H]2CO)cc1 | > 10 µM (inactive) |
| C[C@@H]1CN([C@@H](C)CO)C(=O)CCCn2nncc2CO[C@H]1CN(C)S(=O)(=O)c1cn(C)cn1 | > 10 µM (inactive) |
| COc1cccc(NC(=O)N2[C@@H](CO)[C@@H](c3ccccc3)[C@@H]2CNCC(C)C)c1 | > 10 µM (inactive) |
| CCS(=O)(=O)N(C)C[C@@H]1N[C@H](CO)[C@@H]1c1ccc(C2=CCCCC2)cc1 | > 10 µM (inactive) |
| O=C(Cc1cccnc1)N1[C@@H](CO)[C@H](c2ccccc2)[C@@H]1CNCC1CCC1 | > 10 µM (inactive) |
| CC(=O)N1[C@H](CO)[C@@H](c2ccccc2)[C@@H]1CN(CC1CCC1)C(=O)CN(C)C | > 10 µM (inactive) |
| C[C@H]1CN([C@@H](C)CO)C(=O)CCCn2nncc2CO[C@@H]1CN(C)C(=O)c1cc(-c2ccccc2)on1 | > 10 µM (inactive) |
| C[C@@H]1CN([C@H](C)CO)C(=O)CCCn2nncc2CO[C@@H]1CN(C)C(=O)c1ccc2ccn(C)c2c1 | > 10 µM (inactive) |
| C[C@@H]1CN([C@@H](C)CO)C(=O)CCCn2nncc2CO[C@@H]1CN(C)Cc1ccc2c(c1)OCCN2C | > 10 µM (inactive) |
| OC[C@H]1[C@H]2c3ccccc3NC[C@H]2N1CC1CCOCC1 | > 10 µM (inactive) |
| COc1ccc(CN(C)C[C@@H]2OCc3cnnn3CCCC(=O)N([C@H](C)CO)C[C@@H]2C)cc1 | > 10 µM (inactive) |
| O=C(c1ccc2c(c1)OCO2)N1C[C@@H]2[C@H](c3ccccc31)[C@H](CO)N2C(=O)CC1CC1 | > 10 µM (inactive) |
| COCC(=O)N1[C@@H]2CN(C)c3ccccc3[C@@H]2[C@@H]1CO | > 10 µM (inactive) |
| COc1ccccc1S(=O)(=O)N(C)C[C@@H]1OCc2cn(nn2)CCCC(=O)N([C@@H](C)CO)C[C@H]1C | > 10 µM (inactive) |
| CN1C[C@@H]2[C@H](c3ccccc31)[C@@H](CO)N2S(=O)(=O)c1ccccc1 | > 10 µM (inactive) |
| C/C=C/c1ccc([C@@H]2[C@@H](CO)N[C@@H]2CN(CC)C(=O)CN2CCOCC2)cc1 | > 10 µM (inactive) |
| C/C=C/c1ccc([C@H]2[C@@H](CO)N(C(=O)C3CC3)[C@H]2CNC(=O)NC(C)C)cc1 | > 10 µM (inactive) |
| O=C(NC[C@H]1[C@@H](c2ccccc2)[C@H](CO)N1C(=O)Cc1ccncc1)C1CCC1 | > 10 µM (inactive) |
| O=C(CC(F)(F)F)N1C[C@H]2[C@@H](c3ccccc31)[C@@H](CO)N2C(=O)C1CCCCC1 | > 10 µM (inactive) |
| C[C@H]1CN([C@@H](C)CO)C(=O)CCCn2nncc2CO[C@@H]1CN(C)Cc1ccc2cccnc2c1 | > 10 µM (inactive) |
| C[C@H](CO)N1C[C@H](C)[C@H](CN(C)C(=O)NC2CCCCC2)OCc2cn(nn2)CCCC1=O | > 10 µM (inactive) |
| C[C@@H]1CN([C@H](C)CO)C(=O)CCCn2cc(nn2)CO[C@@H]1CN(C)C(=O)NC1CCCCC1 | > 10 µM (inactive) |
| O=C(NC[C@H]1[C@H](c2ccccc2)[C@H](CO)N1Cc1ccccn1)C1CCCC1 | > 10 µM (inactive) |
| C[C@@H]1CN([C@H](C)CO)C(=O)CCCn2nncc2CO[C@H]1CN(C)Cc1ccc2cccnc2c1 | > 10 µM (inactive) |

| Structure (SMILES) | AC50 |
| --- | --- |
| O=C(NC[C@H]1[C@H](c2ccccc2)[C@@H](CO)N1C(=O)C1CCC1)NC1CCCC1 | > 10 µM (inactive) |
| CC(=O)N1[C@H](CO)[C@H](c2ccccc2)[C@@H]1CN(C)S(=O)(=O)c1ccccc1 | > 10 µM (inactive) |
| C/C=C/c1ccc([C@H]2[C@@H](CO)N(C(C)=O)[C@@H]2CN(CC)C(=O)CN(C)C)cc1 | > 10 µM (inactive) |
| O=C(NC[C@H]1N[C@H](CO)[C@@H]1c1ccc(-c2ccccc2)cc1)c1cccc(F)c1 | > 10 µM (inactive) |
| CCC(=O)N1[C@H](CO)[C@@H]2c3ccccc3N(S(=O)(=O)c3ccc(F)cc3)C[C@@H]21 | > 10 µM (inactive) |
| COCC(=O)N1[C@H](CNC(=O)c2ccccn2)[C@H](c2ccccc2)[C@@H]1CO | > 10 µM (inactive) |
| O=C(Nc1ccc(F)cc1)N1C[C@@H]2[C@H](c3ccccc31)[C@@H](CO)N2C(=O)c1ccncc1 | > 10 µM (inactive) |
| CCN(C[C@H]1[C@@H](c2ccccc2)[C@@H](CO)N1C(=O)COC)S(C)(=O)=O | > 10 µM (inactive) |
| O=C(c1cccc(F)c1)N1C[C@@H]2[C@H](c3ccccc31)[C@H](CO)N2Cc1cocn1 | > 10 µM (inactive) |
| CN1[C@@H]2CN(C(=O)Nc3cc(F)ccc3F)c3ccccc3[C@@H]2[C@@H]1CO | > 10 µM (inactive) |
| COCCNC[C@@H]1[C@@H](c2ccccc2)[C@@H](CO)N1c1nc(C)c(C)s1 | > 10 µM (inactive) |
| C[C@@H]1CN([C@H](C)CO)C(=O)CCCn2nncc2CO[C@@H]1CN(C)Cc1ccccc1C(=O)O | > 10 µM (inactive) |
| Cc1ccc(S(=O)(=O)N2C[C@@H]3[C@H](c4ccccc42)[C@@H](CO)N3Cc2cccnc2)cc1 | > 10 µM (inactive) |
| C[C@@H]1CN([C@@H](C)CO)C(=O)CCCn2nncc2CO[C@H]1CN(C)C(=O)NC1CCCC1 | > 10 µM (inactive) |
| CCCNC(=O)N1C[C@@H]2[C@H](c3ccccc31)[C@H](CO)N2Cc1cccc(OC)c1 | > 10 µM (inactive) |
| CN(C[C@H]1N[C@H](CO)[C@@H]1c1ccc(-c2cccnc2)cc1)C(=O)NC1CCCC1 | > 10 µM (inactive) |
| C[C@H]1CN([C@@H](C)CO)C(=O)CCCn2cc(nn2)CO[C@H]1CN(C)C(=O)Oc1ccc2ccccc2c1 | > 10 µM (inactive) |
| CC(=O)N1[C@H](CO)[C@@H]2c3ccccc3N(C(=O)c3ccc(F)cc3)C[C@@H]21 | > 10 µM (inactive) |
| O=S(=O)(c1ccc(F)cc1)N1C[C@@H]2[C@H](c3ccccc31)[C@@H](CO)N2Cc1ccccc1Cl | > 10 µM (inactive) |
| COc1ccc(C(=O)N2C[C@@H]3[C@H](c4ccccc42)[C@@H](CO)N3C(=O)Cc2ccccn2)cc1 | > 10 µM (inactive) |
| O=C(Cc1ccccc1)N1C[C@H]2[C@@H](c3ccccc31)[C@H](CO)N2S(=O)(=O)c1ccccc1 | > 10 µM (inactive) |
| O=C(c1ccccc1F)N1C[C@H]2[C@@H](c3ccccc31)[C@H](CO)N2C(=O)Nc1ccccc1 | > 10 µM (inactive) |
| C[C@@H]1CN([C@H](C)CO)C(=O)CCCn2nncc2CO[C@H]1CN(C)C(=O)Nc1ccnc(N2CCOCC2)c1 | > 10 µM (inactive) |
| CCCNC[C@@H]1[C@@H](c2ccc(C3=CCCCC3)cc2)[C@@H](CO)N1C(=O)C1CCC1 | > 10 µM (inactive) |
| CCCNC(=O)N1[C@H](CNC(=O)c2cccc(F)c2)[C@@H](c2ccccc2)[C@@H]1CO | > 10 µM (inactive) |

| Structure (SMILES) | AC50 |
| --- | --- |
| C[C@@H]1CN([C@H](C)CO)C(=O)CCCn2cc(nn2)CO[C@H]1CN(C)C(=O)Nc1ccc2c(c1)OCO2 | > 10 µM (inactive) |
| C[C@@H]1CN([C@@H](C)CO)C(=O)CCCn2cc(nn2)CO[C@H]1CN(C)C(=O)NC1CCCCC1 | > 10 µM (inactive) |
| C[C@@H]1CN([C@@H](C)CO)C(=O)CCCn2cc(nn2)CO[C@@H]1CN(C)C(=O)Oc1ccc2ccccc2c1 | > 10 µM (inactive) |
| C[C@H](CO)N1C[C@H](C)[C@H](CN(C)C(=O)Nc2ccnc(N3CCOCC3)c2)OCc2cnnn2CCCC1=O | > 10 µM (inactive) |
| CCC(=O)N1[C@H](CO)[C@H](c2ccccc2)[C@H]1CN(CC)C(=O)c1cccc(F)c1 | > 10 µM (inactive) |
| C[C@H]1CN([C@@H](C)CO)C(=O)CCCn2cc(nn2)CO[C@@H]1CN(C)S(=O)(=O)c1cccc(C#N)c1 | > 10 µM (inactive) |
| C[C@@H]1CN([C@H](C)CO)C(=O)CCCn2nncc2CO[C@H]1CN(C)C(=O)c1ccc(N2CCN(C)CC2)cc1 | > 10 µM (inactive) |
| COCC(=O)N1[C@H](CO)[C@H]2c3ccccc3N(C(=O)Nc3ccccc3Cl)C[C@H]21 | > 10 µM (inactive) |
| C[C@H]1CN([C@@H](C)CO)C(=O)CCCn2nncc2CO[C@@H]1CN(C)Cc1cccc2c1OCCCO2 | > 10 µM (inactive) |
| O=C(NC[C@@H]1[C@H](c2ccccc2)[C@H](CO)N1C(=O)C1CCC1)NC1CCCC1 | > 10 µM (inactive) |
| O=S(=O)(c1ccccc1)N1[C@H](CO)[C@H]2c3ccccc3NC[C@H]21 | > 10 µM (inactive) |
| O=C(C1CCOCC1)N1C[C@@H]2[C@H](c3ccccc31)[C@@H](CO)N2C(=O)Nc1ccccc1F | > 10 µM (inactive) |
| C[C@@H]1CN([C@H](C)CO)C(=O)CCCn2nncc2CO[C@H]1CN(C)C(=O)Nc1ccc(-c2cccs2)cc1 | > 10 µM (inactive) |
| O=C(NC[C@@H]1N[C@@H](CO)[C@H]1c1ccccc1)c1ccccc1F | > 10 µM (inactive) |
| C[C@@H]1CN([C@H](C)CO)C(=O)CCCn2cc(nn2)CO[C@H]1CN(C)C(=O)CCC(F)(F)F | > 10 µM (inactive) |
| O=C(c1ccncc1)N1C[C@H]2[C@@H](c3ccccc31)[C@H](CO)N2Cc1ccccc1F | > 10 µM (inactive) |
| CNC[C@@H]1OCc2cn(nn2)CCCC(=O)N([C@@H](C)CO)C[C@H]1C | > 10 µM (inactive) |
| O=C(C1CCCCC1)N1[C@@H](CO)[C@@H]2c3ccccc3N(S(=O)(=O)c3ccccc3)C[C@@H]21 | > 10 µM (inactive) |
| CCN(C[C@H]1[C@H](c2ccccc2)[C@@H](CO)N1C(C)=O)C(=O)NC1CCCC1 | > 10 µM (inactive) |
| O=C(Cc1ccccc1)N1C[C@@H]2[C@H](c3ccccc31)[C@@H](CO)N2S(=O)(=O)c1ccccc1 | > 10 µM (inactive) |
| C[C@@H]1CN([C@@H](C)CO)C(=O)CCCn2nncc2CO[C@H]1CN(C)C(=O)Nc1ccccc1C(F)(F)F | > 10 µM (inactive) |
| COc1ccc(C(=O)N2C[C@H]3[C@@H](c4ccccc42)[C@@H](CO)N3C(=O)Cc2ccccn2)cc1 | > 10 µM (inactive) |
| C[C@@H]1CN([C@@H](C)CO)C(=O)CCCn2cc(nn2)CO[C@H]1CN(C)S(=O)(=O)c1ccc(-n2cccn2)cc1 | > 10 µM (inactive) |
| C[C@@H]1CN([C@@H](C)CO)C(=O)CCCn2nncc2CO[C@@H]1CN(C)C(=O)c1ccc(N2CCN(C)CC2)cc1 | > 10 µM (inactive) |
| C[C@@H]1CN([C@@H](C)CO)C(=O)CCCn2nncc2CO[C@@H]1CN(C)Cc1ccc2cccnc2c1 | > 10 µM (inactive) |
